Values after ≈ are worked out from the molar mass of the structure shown. Where two headings read alike, the source gives them in different places.
Legend:
[1] = system: chloroquine-resistant K1 strain of P. falciparum; assay: In vitro antimalarial semiautomated microdilution assay ([3H]-hypoxanthine incorporation), K1 strain; assay type: cell-based, Plasmodium falciparum; details: Plasmodium falciparum
In short: (§1)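 IC50 comes from Logit regression of [3H]-hypoxanthine incorporation data. Intraerythrocytic P. falciparum taken from asynchronous stock cultures is exposed to OZ compounds in a semiautomated microdilution format.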

[2] = system: chloroquine-sensitive NF54 strain of P. falciparum; assay: In vitro antimalarial semiautomated microdilution assay ([3H]-hypoxanthine incorporation), NF54 strain; assay type: cell-based, Plasmodium falciparum; details: Plasmodium falciparum
In short: as §1

[3] = system: ANKA strain of P. berghei; assay: Single dose STI in vivo screen in infected mice; parameters: species or system Plasmodium berghei; details: for Survival (days) 10 mg/kg po: single 10 mg/kg po in 3% ethanol and 7% Tween 80; for Survival (days) 10 mg/kg po / Survival (days) 10 mg/kg SSV po / Survival (days) 10 mg/kg sc: untreated 6-7 days; for Activity (%) 10 mg/kg po: single 10 mg/kg po in 3% ethanol and 7% Tween 80 on day 1 post-infection; for Activity (%) 10 mg/kg po / Activity (%) 10 mg/kg SSV po / Activity (%) 10 mg/kg sc: percent reduction in parasitemia on day 3; for Survival (days) 10 mg/kg SSV po: single 10 mg/kg po in SSV; for Activity (%) 10 mg/kg SSV po: single 10 mg/kg po in standard suspending vehicle (SSV) on day 1 post-infection; for Survival (days) 10 mg/kg sc: single 10 mg/kg sc in 3% ethanol and 7% Tween 80; for Activity (%) 10 mg/kg sc: single 10 mg/kg sc in 3% ethanol and 7% Tween 80 on day 1 post-infection
[4] = K1, 72 h, read-out: IC50 (ng/ml) K1, chloroquine-resistant K1 strain, 72 h incubation
[5] = NF54, 72 h, read-out: IC50 (ng/ml) NF54, chloroquine-sensitive NF54 strain, 72 h incubation
[6] = chloroquine-resistant K1 strain, 72 h incubation, read-out: IC50 (ng/ml) K1
[7] = chloroquine-sensitive NF54 strain, 72 h incubation, read-out: IC50 (ng/ml) NF54

Row | SMILES | IC50 [1, 4] | IC50 [2, 5] | Survival (days) 10 mg/kg po [3] | Activity (%) 10 mg/kg po [3] | Survival (days) 10 mg/kg SSV po [3] | Activity (%) 10 mg/kg SSV po [3] | Survival (days) 10 mg/kg sc [3] | Activity (%) 10 mg/kg sc [3] | IC50 [1, 6] | IC50 [2, 7]
1 | N=C(N)NC[C@H]1CC[C@]2(CC1)OOC1(O2)C2CC3CC(C2)CC1C3 (stereo partly drawn) [OZ237] | 5.7 ng/mL (≈ 17 nM) | 7.1 ng/mL (≈ 21.2 nM) | 6.0 days | 5% | 6.0 days | 9% | 6.7 days | 52% | – | –
2 | NC(=O)C[C@H]1CC[C@]2(CC1)OOC1(O2)C2CC3CC(C2)CC1C3 (stereo partly drawn) [OZ243] | 0.91 ng/mL (≈ 2.83 nM) | 1.1 ng/mL (≈ 3.42 nM) | 7.3 days | 87% | 8.7 days | 97% | 6.3 days | 70% | – | –
3 | O=C(C[C@H]1CC[C@]2(CC1)OOC1(O2)C2CC3CC(C2)CC1C3)N1CCN(c2ccccc2)CC1 (stereo partly drawn) [OZ244] | – | – | 5.7 days | 6% | 5.3 days | 0% | 6.3 days | 18% | 4 ng/mL (≈ 8.57 nM) | 4.2 ng/mL (≈ 9 nM)
4 | OC1(c2nccs2)CCC2(CC1)OOC1(O2)C2CC3CC(C2)CC1C3 (stereo not drawn) [OZ247] | – | – | 6.3 days | 57% | 6.0 days | 27% | 9.0 days | 99.85% | 1.8 ng/mL (≈ 4.95 nM) | 2.3 ng/mL (≈ 6.33 nM)
5 | c1c[nH]c([C@H]2CC[C@]3(CC2)OOC2(O3)C3CC4CC(C3)CC2C4)n1 (stereo partly drawn) [OZ251] | – | – | 6.7 days | 29% | 6.0 days | 6% | 9.0 days | 99.87% | 0.6 ng/mL (≈ 1.82 nM) | 0.35 ng/mL (≈ 1.06 nM)
6 | c1csc(NC[C@H]2CC[C@]3(CC2)OOC2(O3)C3CC4CC(C3)CC2C4)n1 (stereo partly drawn) [OZ252] | – | – | 8.3 days | 98.91% | 9.0 days | 99.49% | 9.3 days | 99.82% | 2.3 ng/mL (≈ 6.11 nM) | 2.2 ng/mL (≈ 5.84 nM)
7 | C1C2CC3CC1CC(C2)C31OO[C@]2(CC[C@@H](CNC3CC3)CC2)O1 (stereo partly drawn) [OZ253] | – | – | 7.0 days | 75% | 6.7 days | 59% | 9.3 days | 99.82% | 0.56 ng/mL (≈ 1.68 nM) | 0.45 ng/mL (≈ 1.35 nM)
8 | C1C2CC3CC1CC(C2)C31OO[C@]2(CC[C@@H](CN(C[C@H]3CC[C@]4(CC3)OOC3(O4)C4CC5CC(C4)CC3C5)C3CC3)CC2)O1 (stereo partly drawn) [OZ254, N,N-Bis(cis-adamantane-2-spiro-3′-1′,2′,4′-trioxaspiro[4.5]decane-8′-methyl)cyclopropylamine] | – | – | 6.0 days | 27% | 5.7 days | 11% | 5.7 days | 2% | > 100 ng/mL | 57 ng/mL (≈ 93.5 nM)
9 | O=C(NC[C@H]1CC[C@]2(CC1)OOC1(O2)C2CC3CC(C2)CC1C3)c1ccncc1 (stereo partly drawn) [OZ255] | – | – | 9.0 days | 99.61% | 8.7 days | 99.54% | 10.0 days | 99.92% | 2.2 ng/mL (≈ 5.52 nM) | 1.1 ng/mL (≈ 2.76 nM)
10 | CS(=O)(=O)NC[C@H]1CC[C@]2(CC1)OOC1(O2)C2CC3CC(C2)CC1C3 (stereo partly drawn) [OZ257] | – | – | 8.3 days | 99.00% | 7.7 days | 99.49% | 9.7 days | 99.84% | 42 ng/mL (≈ 113 nM) | 21 ng/mL (≈ 56.5 nM)
11 | Clc1ccc2c(NCCNC3CCC4(CC3)OOC3(O4)C4CC5CC(C4)CC3C5)ccnc2c1 (stereo not drawn) [OZ258] | – | – | 6.0 days | 75% | 6.0 days | 70% | 10.7 days | 99.95% | 5.8 ng/mL (≈ 12 nM) | 5.2 ng/mL (≈ 10.7 nM)
12 | CCOC(=O)CCC[C@H]1CC[C@]2(CC1)OOC1(O2)C2CC3CC(C2)CC1C3 (stereo partly drawn) [OZ260] | – | – | 6.7 days | 72% | 7.0 days | 51% | 7.7 days | 81% | 5.6 ng/mL (≈ 14.8 nM) | 4.3 ng/mL (≈ 11.4 nM)
13 | O=C(O)CCC[C@H]1CC[C@]2(CC1)OOC1(O2)C2CC3CC(C2)CC1C3 (stereo partly drawn) [OZ261] | – | – | 7.0 days | 61% | 7.0 days | 47% | 8.0 days | 92% | 39 ng/mL (≈ 111 nM) | 18 ng/mL (≈ 51.4 nM)
14 | CC(=O)NC[C@H]1CC[C@]2(CC1)OOC1(O2)C2CC3CC(C2)CC1C3 (stereo partly drawn) [OZ262] | – | – | 11.7 days | 96% | 12.3 days | 98% | 10.0 days | 99.39% | 0.63 ng/mL (≈ 1.88 nM) | 0.84 ng/mL (≈ 2.5 nM)
15 | O=C(NC[C@H]1CC[C@]2(CC1)OOC1(O2)C2CC3CC(C2)CC1C3)c1c[nH]cn1 (stereo partly drawn) [OZ263] | – | – | 13.0 days | 99.53% | 13.3 days | 99.45% | 11.0 days | 99.92% | 0.84 ng/mL (≈ 2.17 nM) | 1.1 ng/mL (≈ 2.84 nM)
16 | O=C(NC[C@H]1CC[C@]2(CC1)OOC1(O2)C2CC3CC(C2)CC1C3)c1cc[n+]([O-])cc1 (stereo partly drawn) [OZ264] | – | – | 11.0 days | 99.61% | 10.3 days | 99.92% | 13.7 days | 99.97% | 1.2 ng/mL (≈ 2.9 nM) | 1.5 ng/mL (≈ 3.62 nM)
17 | NC(=O)NC[C@H]1CC[C@]2(CC1)OOC1(O2)C2CC3CC(C2)CC1C3 (stereo partly drawn) [OZ265] | – | – | 13.0 days | 99% | 9.7 days | 98% | 11.7 days | 99.67% | 0.56 ng/mL (≈ 1.66 nM) | 1.6 ng/mL (≈ 4.76 nM)
18 | CN(C)C(=O)NC[C@H]1CC[C@]2(CC1)OOC1(O2)C2CC3CC(C2)CC1C3 (stereo partly drawn) [OZ266] | – | – | 13.7 days | 99% | 11.7 days | 99.39% | 11.7 days | 99.75% | 1.1 ng/mL (≈ 3.02 nM) | 1.5 ng/mL (≈ 4.12 nM)
